Structures can show the parent of a compound that is named as a salt.

What all share (assay type): cell-based
Assay [1] relates to N87 (gastric cancer) cells. As to the kind of experiment: In vitro cell assay (MTS cell viability), N87. To be noted: 96 h, free compounds (natural products and synthetic analogs); cell viability 96 hours after treatment. The procedure: (§1) Target expressing (BT474 (breast cancer), N87 (gastric cancer), HCC1954 (breast cancer), MDA-MB-361-DYT2 (breast cancer)) or non-expressing (MDA-MB-468) cells were seeded in 96-well cell culture plates for 24 hours before treatment. Cells were treated with 3-fold serially diluted antibody-drug conjugates or free compounds (i.e., no antibody conjugated to the drug) in duplicate at 10 concentrations. Cell viability was determined by CellTiter 96® AQueous One Solution Cell Proliferation MTS Assay (Promega, Madison Wis.) 96 hours after treatment. Relative cell viability was determined as percentage of untreated control. IC50 values were calculated using a four parameter logistic model #203 with XLfit v4.2 (IDBS, Guildford, Surry, UK). The potency ranged upward from 0.0002 nm. Similar procedures and techniques were employed.

In assay [2] the test system is BT474 (breast cancer) cells. The experiment in a line: In vitro cell assay (MTS cell viability), BT474. The settings on record: Homo sapiens, BT-474; free compounds (natural products and synthetic analogs); cell viability 96 hours after treatment. The procedure:
as §1

The subject of assay [3] is MDA-MB-361-DYT2 (breast cancer) cells. As to the kind of experiment: In vitro cell assay (MTS cell viability), MDA-MB-361-DYT2. The settings on record: 96 h, free compounds (natural products and synthetic analogs); cell viability 96 hours after treatment. The procedure: as §1

Broadly, the IC50 is the concentration at which inhibition is half-maximal. Higher therefore signals weaker potency. In the case of `CC(=O)O[C@@H](C)/C=C\C(=O)N[C@@H]1C[C@H](C)[C@H](C/C=C(C)/C=C/[C@@H]2C[C@]3(CO3)C[C@@H](CC(=O)NN)O2)O[C@@H]1C` [#B7, (2S,3Z)-5-{[(2R,3R,5S,6S)-6-{(2E,4E)-5-[(3S,5S,7S)-7-(2-hydrazinyl-2-oxoethyl)-1,6-dioxaspiro[2.5]oct-5-yl]-3-methylpenta-2,4-dien-1-yl}-2,5-dimethyltetrahydro-2H-pyran-3-yl]amino}-5-oxopent-3-en-2-yl acetate], the figures for the concentration for half-maximal inhibition (IC50) in assay [1], in assay [2] and in assay [3] were 0.344 nM, 1.12 nM and 1.88 nM, respectively.
For `CC(=O)O[C@@H](C)/C=C\C(=O)N[C@@H]1C[C@H](C)[C@H](C/C=C(C)/C=C/[C@H]2O[C@H](CC(=O)NCCO)C[C@@]3(CO3)[C@@H]2O)O[C@@H]1C` [#B8, (2S,3Z)-5-{[(2R,3R,5S,6S)-6-{(2E,4E)-5-[(3R,4R,5R,7S)-4-hydroxy-7-{2-[(2-hydroxyethyl)amino]-2-oxoethyl}-1,6-dioxaspiro[2.5]oct-5-yl]-3-methylpenta-2,4-dien-1-yl}-2,5-dimethyltetrahydro-2H-pyran-3-yl]amino}-5-oxopent-3-en-2-yl acetate], in that order: 10.7 nM, 14.1 nM and 25.5 nM.
Take `CC(=O)O[C@@H](C)/C=C\C(=O)N[C@@H]1C[C@H](C)[C@H](C/C=C(C)/C=C/[C@H]2O[C@H](CC(N)=O)C[C@@]3(CO3)[C@@H]2O)O[C@@H]1C` [#B9, (2S,3Z)-5-{[(2R,3R,5S,6S)-6-{(2E,4E)-5-[(3R,4R,5R,7S)-7-(2-amino-2-oxoethyl)-4-hydroxy-1,6-dioxaspiro[2.5]oct-5-yl]-3-methylpenta-2,4-dien-1-yl}-2,5-dimethyltetrahydro-2H-pyran-3-yl]amino}-5-oxopent-3-en-2-yl acetate]: the IC50 turned out to be 1.34 nM in assay [1], 3.26 nM in assay [2] and 5.26 nM in assay [3].
For `CC(=O)O[C@@H](C)/C=C\C(=O)N[C@@H]1C[C@H](C)[C@H](C/C=C(C)/C=C/[C@H]2O[C@H](CC(=O)NCc3ccc(S(N)(=O)=O)cc3)C[C@@]3(CO3)[C@@H]2O)O[C@@H]1C` [#B10, (2S,3Z)-5-{[(2R,3R,5S,6S)-6-{(2E,4E)-5-[(3R,4R,5R,7S)-4-hydroxy-7-{2-oxo-2-[(4-sulfamoylbenzyl)amino]ethyl}-1,6-dioxaspiro[2.5]oct-5-yl]-3-methylpenta-2,4-dien-1-yl}-2,5-dimethyltetrahydro-2H-pyran-3-yl]amino}-5-oxopent-3-en-2-yl acetate], in that order: 12.1 nM, 43.5 nM and 77.5 nM.
`CC(=O)O[C@@H](C)/C=C\C(=O)N[C@@H]1C[C@H](C)[C@H](C/C=C(C)/C=C/[C@H]2O[C@H](CC(=O)NCc3ccc(N)cc3)C[C@@]3(CO3)[C@@H]2O)O[C@@H]1C` [#B11, (2S,3Z)-5-{[(2R,3R,5S,6S)-6-{(2E,4E)-5-[(3R,4R,5R,7S)-7-{2-[(4-aminobenzyl)amino]-2-oxoethyl}-4-hydroxy-1,6-dioxaspiro[2.5]oct-5-yl]-3-methylpenta-2,4-dien-1-yl}-2,5-dimethyltetrahydro-2H-pyran-3-yl]amino}-5-oxopent-3-en-2-yl acetate]: the values for the half-inhibitory concentration (IC50) in assay [1], in assay [2] and in assay [3] were 1.61 nM, 3.42 nM and 6.71 nM, respectively.
For `CC(=O)O[C@@H](C)/C=C\C(=O)N[C@@H]1C[C@H](C)[C@H](C/C=C(C)/C=C/[C@H]2O[C@H](CC(=O)N3CCNCC3)C[C@@]3(CO3)[C@@H]2O)O[C@@H]1C` [#B12, (2S,3Z)-5-({(2R,3R,5S,6S)-6-[(2E,4E)-5-{(3R,4R,5R,7S)-4-hydroxy-7-[2-oxo-2-(piperazin-1-yl)ethyl]-1,6-dioxaspiro[2.5]oct-5-yl}-3-methylpenta-2,4-dien-1-yl]-2,5-dimethyltetrahydro-2H-pyran-3-yl}amino)-5-oxopent-3-en-2-yl acetate, acetate salt], in that order: 54.6 nM, 55.5 nM and 87.8 nM.
In the same order, the values of `CC(=O)O[C@@H](C)/C=C\C(=O)N[C@@H]1C[C@H](C)[C@H](C/C=C(C)/C=C/[C@H]2O[C@H](CC(=O)N3CCN(C)CC3)C[C@@]3(CO3)[C@@H]2O)O[C@@H]1C` [#B13, (2S,3Z)-5-({(2R,3R,5S,6S)-6-[(2E,4E)-5-{(3R,4R,5R,7S)-4-hydroxy-7-[2-(4-methylpiperazin-1-yl)-2-oxoethyl]-1,6-dioxaspiro[2.5]oct-5-yl}-3-methylpenta-2,4-dien-1-yl]-2,5-dimethyltetrahydro-2H-pyran-3-yl}amino)-5-oxopent-3-en-2-yl acetate, acetate salt] are 0.99 nM, 0.68 nM and 1.93 nM.
In the same order, the values of `CC(=O)O[C@@H](C)/C=C\C(=O)N[C@@H]1C[C@H](C)[C@H](C/C=C(C)/C=C/[C@@H]2C[C@]3(CO3)C[C@@H](CC(=O)NO)O2)O[C@@H]1C` [#B22, (2S,3Z)-5-({(2R,3R,5S,6S)-6-[(2E,4E)-5-{(3S,5S,7S)-7-[2-(hydroxyamino)-2-oxoethyl]-1,6-dioxaspiro[2.5]oct-5-yl}-3-methylpenta-2,4-dien-1-yl]-2,5-dimethyltetrahydro-2H-pyran-3-yl}amino)-5-oxopent-3-en-2-yl acetate] are 4.23 nM, 1.76 nM and 7.46 nM.
`CC(/C=C/[C@@H]1C[C@]2(CO2)C[C@@H](CC(N)=O)O1)=C\C[C@@H]1O[C@H](C)[C@H](NC(=O)/C=C\[C@H](C)O)C[C@@H]1C` [#B39, (2Z,4S)—N-[(2R,3R,5S,6S)-6-{(2E,4E)-5-[(3S,5S,7S)-7-(2-amino-2-oxoethyl)-1,6-dioxaspiro[2.5]oct-5-yl]-3-methylpenta-2,4-dien-1-yl}-2,5-dimethyltetrahydro-2H-pyran-3-yl]-4-hydroxypent-2-enamide]: the IC50 is 4.65 nM in assay [1], 3.4 nM in assay [2] and 7.67 nM in assay [3].
`CC(/C=C/[C@@H]1C[C@]2(CO2)C[C@@H](CC(N)=O)O1)=C\C[C@@H]1O[C@H](C)[C@H](NC(=O)/C=C\[C@H](C)OC(=O)N2CCCCC2)C[C@@H]1C` [#B40, (2S,3Z)-5-{[(2R,3R,5S,6S)-6-{(2E,4E)-5-[(3S,5S,7S)-7-(2-amino-2-oxoethyl)-1,6-dioxaspiro[2.5]oct-5-yl]-3-methylpenta-2,4-dien-1-yl}-2,5-dimethyltetrahydro-2H-pyran-3-yl]amino}-5-oxopent-3-en-2-yl piperidine-1-carboxylate]: the concentration for half-maximal inhibition (IC50) turned out to be 6.76 nM in assay [1], 1.86 nM in assay [2] and 5.84 nM in assay [3].
For `COC(=O)C[C@@H]1C[C@@]2(CO2)[C@H](O)[C@@H](/C=C/C(C)=C/C[C@@H]2O[C@H](C)[C@H](NC(=O)/C=C\[C@H](C)OC(C)=O)C[C@@H]2C)O1` [#B55, methyl [(3R,5S,7R,8R)-7-{(1E,3E)-5-[(2S,3S,5R,6R)-5-{[(2Z,4S)-4-(acetyloxy)pent-2-enoyl]amino}-3,6-dimethyltetrahydro-2H-pyran-2-yl]-3-methylpenta-1,3-dien-1-yl}-8-hydroxy-1,6-dioxaspiro[2.5]oct-5-yl]acetate], the IC50 in assay [1] amounted to 0.822 nM; in assay [2], 0.879 nM; in assay [3], 1.26 nM.
In the same order, the values of `CCCNC(=O)C[C@@H]1C[C@@]2(CO2)[C@H](O)[C@@H](/C=C/C(C)=C/C[C@@H]2O[C@H](C)[C@H](NC(=O)/C=C\[C@H](C)OC(=O)C(C)C)C[C@@H]2C)O1` [#B71, (2S,3Z)-5-({(2R,3R,5S,6S)-6-[(2E,4E)-5-{(3R,4R,5R,7S)-4-hydroxy-7-[2-oxo-2-(propylamino)ethyl]-1,6-dioxaspiro[2.5]oct-5-yl}-3-methylpenta-2,4-dien-1-yl]-2,5-dimethyltetrahydro-2H-pyran-3-yl}amino)-5-oxopent-3-en-2-yl 2-methylpropanoate] are 0.451 nM, 1.08 nM and 1.36 nM.
Regarding `CC(=O)O[C@@H](C)/C=C\C(=O)N[C@@H]1C[C@H](C)[C@H](C/C=C(C)/C=C/[C@H]2O[C@H](CC(=O)N3CCCCC3)C[C@@]3(CO3)[C@@H]2O)O[C@@H]1C` [#B72, (2S,3Z)-5-({(2R,3R,5S,6S)-6-[(2E,4E)-5-{(3R,4R,5R,7S)-4-hydroxy-7-[2-oxo-2-(piperidin-1-yl)ethyl]-1,6-dioxaspiro[2.5]oct-5-yl}-3-methylpenta-2,4-dien-1-yl]-2,5-dimethyltetrahydro-2H-pyran-3-yl}amino)-5-oxopent-3-en-2-yl acetate], the results for the IC50 in assay [1], in assay [2] and in assay [3] were 0.481 nM, 0.607 nM and 1.16 nM, respectively.
For `CC(=O)O[C@@H](C)/C=C\C(=O)N[C@@H]1C[C@H](C)[C@H](C/C=C(C)/C=C/[C@@H]2C[C@]3(CO3)C[C@@H](CC(=O)NC(C)(C)C(=O)O)O2)O[C@@H]1C` [#B79, N-{[(3S,5S,7S)-7-{(1E,3E)-5-[(2S,3S,5R,6R)-5-{[(2Z,4S)-4-(acetyloxy)pent-2-enoyl]amino}-3,6-dimethyltetrahydro-2H-pyran-2-yl]-3-methylpenta-1,3-dien-1-yl}-1,6-dioxaspiro[2.5]oct-5-yl]acetyl}-2-methylalanine], in that order: 0.423 nM, 0.723 nM and 1.31 nM.

Values taken from patent US9504669B2, “Spliceostatin analogs and methods for their preparation” (PFIZER INC., priority 2012, dated 2016).
